From ChEMBL document CHEMBL1201862, “PubChem BioAssay data set” (2004) come the findings set out here.

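Dose response: 5 concentrations. Exposure: 48 h. Format: 96-well plates. Endpoint: linear interpolation; highest concentration if not reached. At the GI50, growth is halved.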 Calls of active or inactive are those of the source. No stated cut-off is given here; in the data, active = GI50 up to about 1.1 µM and inactive = higher.

Some test systems named below: SNB-19; MDA-N; OVCAR-3; EKVX; SF-295; NCI-H460; 786-0; CCRF-CEM; HCC 2998; OVCAR-5; HCT-15; Malme-3M; IGROV-1; TK-10; SN12C; UO-31; SR; HCT-116; HT-29; RXF 393.
Experiment in all cases: growth of human tumour cells (NCI), 48 h

Take `C/C(=N\Nc1ccc([N+](=O)[O-])cc1[N+](=O)[O-])c1sc(-n2nc(-c3ccccc3)cc2-c2ccccc2)nc1C`: the GI50 with SNB-19 was 93.5 µM (inactive); in the assay with MDA-N, 46.8 µM (inactive); with OVCAR-3, 39.4 µM (inactive); in the assay on EKVX, 26.5 µM (inactive); with SF-295, 35.7 µM (inactive); with NCI-H460 it was 30.8 µM (inactive). For the same molecule, the GI50 in the assay with 786-0 was 36.7 µM (inactive); with CCRF-CEM, 19.5 µM (inactive); in the assay on HCC 2998, 32.9 µM (inactive); with OVCAR-5, > 100 µM (inactive); in the assay on HCT-15, 38.6 µM; in the assay with Malme-3M, 76.7 µM (inactive). Besides, the GI50 is 0.897 µM (active) in the assay with IGROV-1; 27.9 µM (inactive) in the assay on TK-10; 50.1 µM (inactive) in the assay with SN12C; 19.8 µM (inactive) with UO-31; 18.3 µM (inactive) in the assay with SR; 29.4 µM (inactive) in the assay on HCT-116. The GI50 in the assay with HT-29 was 17 µM (inactive).
`COC(=O)[C@@H]1C2OC(C)(C)OC2CN1C(=O)OCc1ccccc1` (some centres not stated): the GI50 in the assay on RXF 393, with SNB-19, with MDA-N, with OVCAR-3, with EKVX and in the assay with SF-295 was > 100 µM (inactive) throughout. Besides, the GI50 in the assay with NCI-H460 was > 100 µM (inactive); in the assay on 786-0, > 100 µM (inactive); in the assay on HCC 2998 it was > 100 µM (inactive); with OVCAR-5, > 100 µM (inactive); in the assay on HCT-15, over 100 µM; in the assay on Malme-3M it was > 100 µM (inactive). The GI50 in the assay with IGROV-1, in the assay with TK-10, in the assay on SN12C, in the assay with UO-31, with SR and with HCT-116 was > 100 µM (inactive) throughout. In addition, in the assay with HT-29, the GI50 is > 100 µM (inactive).
As to `N#CC(C#N)/N=N/c1ccc(-c2nc3ccccc3s2)cc1`, the GI50 was 4.23 µM (inactive) in the assay with RXF 393; 4.93 µM (inactive) in the assay on MDA-N; 7.03 µM (inactive) with EKVX; 8.36 µM (inactive) with 786-0; 28 µM (inactive) with OVCAR-5; 3.59 µM in the assay on HCT-15. Moreover, the GI50 with Malme-3M is 3.15 µM (inactive); in the assay on IGROV-1 it was 6 µM (inactive); in the assay with TK-10, 3.98 µM (inactive); in the assay on SN12C, 2.78 µM (inactive); with UO-31, 7.46 µM (inactive); with SR, 3.23 µM (inactive). In addition, the figures for the GI50 in the assay with HCT-116 and with HT-29 were 3.78 µM (inactive) and 6.64 µM (inactive), respectively.
As to `COc1cc(/C=N\N(C)C)cc(/C=N/N(C)C)c1O`, the GI50 was 43.1 µM (inactive) with RXF 393; 30.6 µM (inactive) in the assay with SNB-19; 25.9 µM (inactive) in the assay with MDA-N; 17.3 µM (inactive) in the assay with OVCAR-3; 2.9 µM (inactive) in the assay with SF-295; 30.1 µM (inactive) in the assay on NCI-H460. Also, the GI50 is 24.4 µM (inactive) in the assay with 786-0; 17.3 µM (inactive) in the assay with CCRF-CEM; 88.1 µM with HCT-15; 10.8 µM (inactive) in the assay on Malme-3M; 55.7 µM (inactive) with TK-10; 14.4 µM (inactive) in the assay with SN12C. Also, the GI50 in the assay on UO-31 is 22 µM (inactive); in the assay with SR, 12.5 µM (inactive); in the assay on HCT-116 it was 29.8 µM (inactive); with HT-29, 10.6 µM (inactive).
On to `O=C1NC(=S)N/C1=C\c1ccc(Sc2ccccc2C(=O)O)s1`, for which the GI50 in the assay on RXF 393, in the assay on SNB-19, in the assay with MDA-N, in the assay on OVCAR-3, in the assay on EKVX and with SF-295 was > 100 µM (inactive) throughout. The GI50 in the assay with NCI-H460 is > 100 µM (inactive); in the assay on 786-0, > 100 µM (inactive); in the assay with HCC 2998 it was > 100 µM (inactive); in the assay with OVCAR-5, > 100 µM (inactive); in the assay with HCT-15, over 100 µM; in the assay with Malme-3M, > 100 µM (inactive). Further, the GI50 with IGROV-1, in the assay on TK-10, with SN12C, with UO-31, in the assay with SR and in the assay with HCT-116 was > 100 µM (inactive) in each case. The GI50 in the assay on HT-29 is > 100 µM (inactive).
As for `CCOC(=O)/C(=C\c1c(C)[nH]c2ccccc12)P(=O)(OCC)OCC`, the GI50 in the assay with RXF 393, in the assay with SNB-19, in the assay with MDA-N, with OVCAR-3, in the assay with EKVX and in the assay on SF-295 was > 100 µM (inactive) in each case. The GI50 in the assay with NCI-H460 is > 100 µM (inactive); with 786-0, > 100 µM (inactive); in the assay with HCC 2998 it was > 100 µM (inactive); with OVCAR-5, > 100 µM (inactive); with HCT-15 it was over 100 µM; in the assay with Malme-3M, > 100 µM (inactive). For the same molecule, the GI50 in the assay on IGROV-1, with TK-10, with SN12C, in the assay on SR, in the assay with HCT-116 and in the assay with HT-29 was > 100 µM (inactive) in each case.
Take `CCOC(=O)c1cc2c([nH]1)C(=O)CC1=C2CCN1Cc1ccccc1`: the GI50 with RXF 393 was 13.9 µM (inactive); with SNB-19, 17.5 µM (inactive); with MDA-N it was 13.5 µM (inactive); with EKVX, 19.8 µM (inactive); with SF-295, 18.5 µM (inactive); in the assay on NCI-H460 it was 18.4 µM (inactive). In addition, the GI50 in the assay with 786-0 was 17.2 µM (inactive); in the assay on CCRF-CEM, 4.43 µM (inactive); in the assay on HCT-15, 8.53 µM; in the assay on Malme-3M, 5.65 µM (inactive); in the assay with IGROV-1, 17.9 µM (inactive); in the assay with TK-10, 13.9 µM (inactive). In addition, the GI50 was 18.2 µM (inactive) with SN12C; 15.3 µM (inactive) in the assay on UO-31; 5.02 µM (inactive) in the assay on SR; 13 µM (inactive) in the assay on HCT-116; 16 µM (inactive) with HT-29.
As for `Cc1ccc(C(=O)N(C2CCCCC2)C2CCCCC2)cc1/N=N/N(C)C`, the GI50 is 12.6 µM (inactive) in the assay with SNB-19; 15 µM (inactive) with MDA-N; 6.34 µM (inactive) with OVCAR-3; 16.3 µM (inactive) with EKVX; 11.4 µM (inactive) with SF-295; 15.1 µM (inactive) in the assay on NCI-H460. The GI50 is 15.3 µM (inactive) with 786-0; 14.9 µM (inactive) in the assay on CCRF-CEM; 15.7 µM (inactive) in the assay on HCC 2998; 19 µM (inactive) with OVCAR-5; 14.1 µM in the assay on HCT-15; 16.2 µM (inactive) in the assay on Malme-3M. Also, the GI50 with IGROV-1 was 15.6 µM (inactive); in the assay on TK-10, 9.82 µM (inactive); in the assay with SN12C, 15.4 µM (inactive); in the assay on UO-31, 12.8 µM (inactive); with SR, 18.2 µM (inactive); in the assay with HCT-116, 5.51 µM (inactive). Besides, the GI50 with HT-29 was 6.08 µM (inactive).
Consider `OC(COC(c1ccccc1)(c1ccccc1)c1ccccc1)C(O)CC1SCCS1` (configuration not stated), for which the GI50 was 10.2 µM (inactive) in the assay on RXF 393; 21.7 µM (inactive) in the assay on SNB-19; 19 µM (inactive) with MDA-N; 22.2 µM (inactive) in the assay on OVCAR-3; 11.2 µM (inactive) in the assay with EKVX; 17.6 µM (inactive) in the assay with 786-0. Further, the GI50 in the assay with CCRF-CEM was 21.3 µM (inactive); in the assay on OVCAR-5 it was 19.2 µM (inactive); with HCT-15, 21.8 µM; with Malme-3M, 10 µM (inactive); with IGROV-1 it was 10.2 µM (inactive); in the assay on TK-10, 21 µM (inactive). Besides, the GI50 is 17.7 µM (inactive) in the assay on SN12C; 10.9 µM (inactive) in the assay with UO-31; 0.0275 µM (active) in the assay with SR; 16.4 µM (inactive) with HCT-116; 12.4 µM (inactive) with HT-29.
Consider `Cc1cc2c(cc1C)C(=O)/C(=N/Nc1ccc(F)cc1)CCO2`, for which the GI50 was > 100 µM (inactive) with SNB-19; > 100 µM (inactive) in the assay on MDA-N; > 100 µM (inactive) in the assay on OVCAR-3; > 100 µM (inactive) in the assay with EKVX; 27.1 µM (inactive) in the assay with SF-295; > 100 µM (inactive) in the assay with NCI-H460. The GI50 was > 100 µM (inactive) with 786-0; > 100 µM (inactive) in the assay with CCRF-CEM; > 100 µM (inactive) with HCC 2998; > 100 µM (inactive) with OVCAR-5; over 100 µM in the assay on HCT-15; 37 µM (inactive) with Malme-3M. Also, the GI50 in the assay on IGROV-1, with TK-10, in the assay on SN12C, in the assay with UO-31, with SR and in the assay on HCT-116 was > 100 µM (inactive) in each case. In addition, in the assay with HT-29, the GI50 is 24.6 µM (inactive).
For the molecule `O=C(c1cccc2cc(O)ccc12)c1cn(CCN2CCOCC2)c2ccccc12`, the GI50 in the assay on RXF 393 is 21.8 µM (inactive); with SNB-19, 55.7 µM (inactive); with MDA-N it was 25.2 µM (inactive); in the assay on EKVX it was 28.1 µM (inactive); with 786-0, 21.1 µM (inactive); with CCRF-CEM it was 4.06 µM (inactive). Besides, the GI50 in the assay with OVCAR-5 was 29.5 µM (inactive); in the assay with Malme-3M it was 22.8 µM (inactive); in the assay on IGROV-1 it was 20.3 µM (inactive); in the assay with TK-10, 21.6 µM (inactive); in the assay on SN12C it was 31.8 µM (inactive); in the assay with UO-31, 24.1 µM (inactive). For the same molecule, the GI50 with SR was 50.2 µM (inactive); with HCT-116 it was 20 µM (inactive); in the assay with HT-29, 20.7 µM (inactive).
